Experimental data published in US11746100B2 (GLOBAL BLOOD THERAPEUTICS, INC., priority 2020, dated 2023).

Target: T1, human ferroportin (Homo sapiens, UniProt Q9NP59)
T1 construct: luciferase reporter (read with the Nano-Glo Luciferase Assay System); expressed in transfected cells; host or cells: CHO cells, stably transfected, expression induced with doxycycline
T1 sequence (Q9NP59 1-571): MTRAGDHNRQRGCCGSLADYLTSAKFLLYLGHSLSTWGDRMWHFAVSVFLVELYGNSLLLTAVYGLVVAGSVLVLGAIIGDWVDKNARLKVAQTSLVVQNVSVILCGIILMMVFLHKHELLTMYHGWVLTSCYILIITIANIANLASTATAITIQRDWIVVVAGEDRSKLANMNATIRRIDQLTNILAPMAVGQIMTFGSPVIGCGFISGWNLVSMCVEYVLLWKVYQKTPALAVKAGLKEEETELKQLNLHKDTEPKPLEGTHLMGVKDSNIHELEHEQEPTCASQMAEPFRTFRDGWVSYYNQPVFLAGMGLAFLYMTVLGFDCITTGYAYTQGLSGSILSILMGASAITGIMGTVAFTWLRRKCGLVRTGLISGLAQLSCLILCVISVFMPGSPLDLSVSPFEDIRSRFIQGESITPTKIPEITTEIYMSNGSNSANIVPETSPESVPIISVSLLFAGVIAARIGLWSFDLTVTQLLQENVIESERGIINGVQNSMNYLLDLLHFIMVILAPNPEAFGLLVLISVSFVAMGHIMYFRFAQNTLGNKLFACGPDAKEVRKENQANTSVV
Assay: Biological in-vitro ferroportin internalization assay (luciferase reporter)
Assay type: cell-based
Conditions: average pEC50; stably-transfected CHO cell line expressing human ferroportin tagged to a luciferase reporter; 6 h incubation with test compound
Summary of the method: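 Stably transfected CHO cells expressing luciferase-tagged human ferroportin, plated 24 h with ferric ammonium citrate and induced with doxycycline for 24 h. Compounds incubated 6 h, then luciferase activity measured by Nano-Glo; average pEC50 reported.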

SMILES | pEC50
CC(C)NC(=O)[C@@H](C)N(C)c1nc(-c2cc(OCC(C)(C)O)ccn2)nc2c1CCC2 [Compound 453, (2R)-2-({2-[4-(2-hydroxy-2-methylpropoxy)pyridin-2-yl]-5H,6H,7H-cyclopenta[d]pyrimidin-4-yl}(methyl)amino)-N-(propan-2-yl)propanamide] | 8.1
CC(C)NC(=O)CN(C)c1nc(-c2cc(OCCN(C)C)ccn2)nc2c1CC(C)(C)C2 [Compound 455, 2-[(2-{4-[2-(dimethylamino)ethoxy]pyridin-2-yl}-6,6-dimethyl-5H,6H,7H-cyclopenta[d]pyrimidin-4-yl)(methyl)amino]-N-(propan-2-yl)acetamide] | 7.7
CC(C)NC(=O)CN(C)c1nc(-c2cc(OCCN(C)C)ccn2)nc2c1CCC2(C)C [Compound 456, 2-[(2-{4-[2-(dimethylamino)ethoxy]pyridin-2-yl}-7,7-dimethyl-5H,6H,7H-cyclopenta[d]pyrimidin-4-yl)(methyl)amino]-N-(propan-2-yl)acetamide] | 6.2
CN(C)CCOc1ccnc(-c2nc(N(C)CC(=O)NC(C)(C)C)c3c(n2)C(C)(C)CC3)c1 [Compound 457, N-tert-butyl-2-[(2-{4-[2-(dimethylamino)ethoxy]pyridin-2-yl}-7,7-dimethyl-5H,6H,7H-cyclopenta[d]pyrimidin-4-yl)(methyl)amino]acetamide] | 6.3
COc1ccnc(-c2nc3c(c(N(C)CC(=O)N[C@H](C)CO)n2)CCC3)c1 [Compound 458, N-[(2R)-1-hydroxypropan-2-yl]-2-{[2-(4-methoxypyridin-2-yl)-5H,6H,7H-cyclopenta[d]pyrimidin-4-yl](methyl)amino}acetamidede] | 7.3
COc1ccnc(-c2nc3c(c(N(C)CC(=O)N[C@@H](C)CO)n2)CCC3)c1 [Compound 459, N-[(2S)-1-hydroxypropan-2-yl]-2-{[2-(4-methoxypyridin-2-yl)-5H,6H,7H-cyclopenta[d]pyrimidin-4-yl](methyl)amino}acetamide] | 7.3

Now from value to compound:

pEC50 | SMILES
8.4 | CN(CC(=O)NC(C)(C)C)c1nc(-c2cc(OC[C@H](O)CF)ccn2)nc2c1CCC2 [Compound 452, N-tert-butyl-2-[(2-{4-[(2S)-3-fluoro-2-hydroxypropoxy]pyridin-2-yl}-5H,6H,7H-cyclopenta[d]pyrimidin-4-yl)(methyl)amino]acetamide]
7.9 | CN(C)CCOc1ccnc(-c2nc3c(c(N(C)CC(=O)NC(C)(C)C)n2)CC(C)(C)C3)c1 [Compound 454, N-tert-butyl-2-[(2-{4-[2-(dimethylamino)ethoxy]pyridin-2-yl}-6,6-dimethyl-5H,6H,7H-cyclopenta[d]pyrimidin-4-yl)(methyl)amino]acetamide]
8.2 | CN(CC(=O)NC(C)(C)C)c1nc(-c2cc(OCCN3CCOCC3)ccn2)nc2c1CCC2 [Compound 460, N-tert-butyl-2-[methyl(2-{4-[2-(morpholin-4-yl)ethoxy]pyridin-2-yl}-5H,6H,7H-cyclopenta[d]pyrimidin-4-yl)amino]acetamide]
8.3 | CN(CC(=O)NC(C)(C)C)c1nc(-c2cc(OCCN3C[C@@H]4C[C@H]3CO4)ccn2)nc2c1CCC2 [Compound 461, N-tert-butyl-2-{methyl[2-(4-{2-[(1S,4S)-2-oxa-5-azabicyclo[2.2.1]heptan-5-yl]ethoxy}pyridin-2-yl)-5H,6H,7H-cyclopenta[d]pyrimidin-4-yl]amino}acetamide]
8.4 | CN(CC(=O)NC(C)(C)C)c1nc(-c2cc(OCCN3C[C@H]4C[C@@H]3CO4)ccn2)nc2c1CCC2 [Compound 462, N-tert-butyl-2-{methyl[2-(4-{2-[(1R,4R)-2-oxa-5-azabicyclo[2.2.1]heptan-5-yl]ethoxy}pyridin-2-yl)-5H,6H,7H-cyclopenta[d]pyrimidin-4-yl]amino}acetamide]
8.1 | CO[C@@H]1CCN(CCOc2ccnc(-c3nc4c(c(N(C)CC(=O)NC(C)(C)C)n3)CCC4)c2)C1 [Compound 463, N-tert-butyl-2-{[2-(4-{2-[(3R)-3-methoxypyrrolidin-1-yl]ethoxy}pyridin-2-yl)-5H,6H,7H-cyclopenta[d]pyrimidin-4-yl](methyl)amino}acetamide]
